Results reported in patent US20170073306A1, “POTENT INHIBITORS OF HUMAN CARBONIC ANHYDRASE II AND BOVINE CARBONIC ANHYDRASE II AND THEIR MECHANISM OF ACTION” (priority 2015, published 2017).

Legend:
[1] = MTT cytotoxicity assay; assay type: cell-based; settings: mouse, 3T3 mouse fibroblast cells, 3T3 cells, 50% growth inhibition, read-out: Cytotoxicity IC50 ± SD
Method: Cytotoxicity studies were performed using a colorimetric assay that measures the reduction of 3-(4,5-dimethythiazol-2-yl)-2,5-diphenyl tetrazolium bromide (MTT) (yellow in color), by mitochondrial enzyme (i.e. succinate dehydrogenase). The MTT enters into the mitochondria of cell, where it is reduced to an insoluble formazan salt (purple in color). The extent of MTT reduction to formazan within cells was measured spectrophotometrically. As reduction of MTT can only occur in metabolically active cells the level of activity is actually a measure of the viability of the cells^22.
Mouse fibroblast cell line 3T3 was cultured in DMEM, supplemented with 5% of FBS, 100 IU/ml of penicillin and 100 μg/ml of streptomycin, and kept at 37° C. in 5% CO2 incubator. For the preparation of cell culture 100 μL/well of cell solution (5×10^4 cells/ml) was added into 96-well plate. The plate was incubated for overnight, and fresh medium was added after the removal of old medium. The test compounds were also added in different concentrations into the plate and plate was again incubated for 48 hrs. After the completion of this incubation period 200 μL MTT (0.5 mg/ml) was added and plate was again incubated for 4 hrs, after this final incubation 100 μL of DMSO was added to each well. The level of MTT reduction to formazan was evaluated by change in absorbance at 540 nm using a micro plate reader (Spectra Max plus, Molecular Devices, CA, USA).

[2] = biological target: T1, Bovine Carbonic Anhydrase-II (bovine erythrocyte CA-II) (Bos taurus, UniProt P00921); assay: Bovine carbonic anhydrase-II inhibition, 4-nitrophenyl acetate spectrophotometric assay; assay type: biochemical; settings: 4-nitrophenyl acetate 0.7 mM, pH 7.4, 15 min preincubation; read-out: IC50 ± S.E.M. BCA-II
T1 construct: pure bovine erythrocyte CA-II; from tissue; host or cells: bovine erythrocytes
T1 sequence (P00921 whole entry): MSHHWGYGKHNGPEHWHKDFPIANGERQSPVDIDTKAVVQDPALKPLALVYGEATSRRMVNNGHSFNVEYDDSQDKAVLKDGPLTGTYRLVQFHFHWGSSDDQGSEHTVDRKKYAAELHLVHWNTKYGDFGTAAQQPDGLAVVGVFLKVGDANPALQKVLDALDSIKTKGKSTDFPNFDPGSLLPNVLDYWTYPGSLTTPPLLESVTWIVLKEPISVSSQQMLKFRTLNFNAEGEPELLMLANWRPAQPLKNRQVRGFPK
Method: (§1) Nineteen different analogues of benzamide sulfonamides were evaluated for carbonic anhydrase-II inhibition. The rate of catalyzed reaction was monitored by the amount of product formation by using the chromogenic substrate i.e., 4-nitrophenyl acetate.
4-Nitrophenyl acetate (4-NPA) is a colorless compound which is used as a substrate in carbonic anhydrase inhibition assay. The reaction involves the hydrolysis of 4-nitrophenyl acetate into […] and 4-nitrophenol a yellow colored compound. During this experiment, HEPES-tris buffer was used at 20 mM concentration with pH 7.4.
After 15 min of incubation of the enzyme with the test compound, the substrate was added to initiate the reaction. The reaction was carried out in triplicate with different concentrations of test compounds was used.
In this assay protocol, the reaction was performed by using a 96-well flat bottom plate.
The amount of product formation was measured at 400 nm for 30 min with 1 min interval, multiplate reader SPECTRA max 340 (Molecular Devices, CA, USA) was used to monitor the product formation.
The enzyme inhibitory activities were calculated using the following formula:
% Inhibition=100−(O.D of test/O.D of control)*100
(§2) Where test is the enzyme activity with sample and control is the enzyme activity without sample. The IC50 of the compounds were calculated by using EZ-Fit Enzyme Kinetic Program (Perrella Scientific Inc. Amhrest, U.S.A).

[3] = biological target: T2, Human Carbonic Anhydrase-II (human erythrocyte CA-II) (Homo sapiens, UniProt P00918); assay: HCA-II inhibitory activity, 4-nitrophenyl acetate spectrophotometric assay; assay type: biochemical; settings: 4-nitrophenyl acetate 0.7 mM, pH 7.4, 25° C., 15 min preincubation; read-out: IC50 ± S.E.M. HCA-II
T2 construct: purified human erythrocyte CA-II; from tissue; host or cells: human erythrocytes
Method: as §1
Hydrolysis of 4-NPA (a colorless compound): yields 4-nitrophenol and […]. The reaction is monitored by quantifying the formation of 4-nitrophenol, a yellow colored compound.
In successive experiments, HEPES-tris was used as a buffer for the reaction at final concentration of 20 mM, with 7.4 pH. The total reaction volume of 200 μL includes, 140 μL of the HEPES-tris, 20 μL of test compound diluted in DMSO (20 μL of DMSO as a control sample), 20 μL of purified human erythrocyte CA-II (0.1 mg/mL) prepared in deionized water and 20 μL of a solution of 4-NPA (0.7 mM diluted in ethanol). Adhesion of enzyme with the plastic-ware was avoided by the addition of bovine serum albumin (1 mg/mL).
The 20 μL of test compound was incubated with enzyme for a period of 15 min. The rate of product formation was monitored with the addition of 20 μL substrate prepared in ethanol at a final concentration of 0.7 mM 4-nitrophenyl acetate at 25° C. for a period of 30 min with regular interval of 1 min.
The assay was performed in triplicates by using 96-well flat bottom plate.
The enzyme inhibitory activities were calculated using the following formula: […]
as §2

[4] = biological target: T3, Bovine Carbonic Anhydrase-II (Bos taurus, UniProt P00921); assay: Kinetics studies (Lineweaver-Burk, Dixon plots) against Bovine Carbonic Anhydrase-II; assay type: biochemical; parameters: Vmax app: unit not given here
T3 construct: pure bovine erythrocyte CA-II; from tissue; host or cells: bovine erythrocytes
T3 sequence (P00921 whole entry): as above
Method: FIG. 2B depicts the double reciprocal plot for Ki determination which is between Slope Vs Inhibitor Conc.
FIG. 3B depicts the double reciprocal plot for Ki determination which is between Slope Vs Inhibitor Conc.
Kinetics studies were performed for each analogue. […] The Grafit version 7.0 was used for the construction of Lineveawer-Burk plots and their secondary replots.

Structure (SMILES): CCC(C(=O)NC(=S)Nc1ccc(S(N)(=O)=O)cc1)c1ccccc1 (stereo not shown) [Compound 18, 2-Phenyl-N-(4-sulfamoylphenylcarbamothioyl)butanamide]
- IC50 at 48 h [1]: > 30000 nM
- IC50 [2]: 200 ± 1 nM
- IC50 [3]: 250 ± 10 nM
- Type of Inhibition ([4]; Lineweaver-Burk / Dixon plots): Mixed type
- Vmax app ([4]; apparent Vmax with inhibitor (0.2-0.00625 μM)): 12.93
- Vmax ([4]; enzyme Vmax without inhibitor): 42.73 (μM/L/min)^−1
- Ki ([4]; from secondary replots / Dixon plot, read-out: Ki): 160 nM
